This note sets out measurements from patent US8765754B2, “Pyrrolotriazine compounds” (Locus Pharmaceuticals, Inc., priority 2009, dated 2014).

One data set addresses T1, Btk (Homo sapiens, UniProt Q06187).
T1 construct: purchased Invitrogen
Put plainly: Btk in vitro radioassay (33P-ATP, Poly(Glu,Tyr)). As to conditions: Btk inhibition; reported after Biological Example 2; read-out: IC50 over Btk. The data set is classed as biochemical. The procedure: The diluted solution (1 μl) of the compound of the present invention in DMSO was added to 96-well assay plates. Additionally, Btk kinase solution (39 μL) composed of Btk (1.3 nM, Invitrogen), Tris (12.5 mM; pH7.5), Triton X-100 (0.01%), glycerol (5%), MgCl2 (10 mM), EGTA (1 mM), glycerol 2-phosphate (5 mM), DTT (2 mM) and sodium orthovanadate (0.5 mM) was added to 96-well assay plate. The solution was pre-incubated for 20 minutes at 30° C. Then ATP/peptide solution (10 μL) composed of Poly (Glu, Tyr) (0.20 mg/mL, Sigma) and ^33P-ATP (47 μM, PerkinElmer) was added. After incubating at 30° C. for 12 minutes, the reaction was stopped by adding 10 μL of 0.6M phosphoric acid to each well. The each reaction from the 96-well assay plate was transferred to 96-well filter plate. The reaction mixture was analyzed on the radioactive survey equipment (TopCount NXT HTS; PerkinElmer) to read count efficiency.
The inhibition rate (%) of the compound of the present invention was calculated with the following formula: Inhibition rate(%)={1−(counts−B100)/(B0−B100)}×100 B0: average counts for 0% inhibition control (i.e., no compound) B100: average counts for 100% inhibition control (i.e., no enzyme)
The value of 50% inhibition rate (IC50) for the compounds of the present invention was determined from inhibition curve based on inhibition rate at each concentration of the compound of the present invention.

For a further data set, the target named is LynA (Homo sapiens, UniProt P07948). Put plainly: Z'-lyte kinase assay (FRET), inhibitory activity to other kinases: LynA. The class given is biochemical. The following applies: selectivity ratio, Biological Example 1 and 2. As for the experimental part: (§1) Btk tyrosine phosphorylation reaction was carried out using Z′-lyte kinase assay kit—Tyr 1 peptide (Invitrogen) consisting of the following reagent (Tyr 1 peptide, Thy 1 phospho-peptide, 5× kinase buffer, ATP, development regent B, development buffer, and stop reagent) and Btk. Btk activity was determined using fluorescence resonance energy transfer (FRET) method.
(§2) The diluted solution (5 μl) of the compound of the present invention in dimethyl sulfoxide (DMSO; Sigma) was added to 96-well assay plates. Additionally, the peptide/kinase solution (10 μl) composed of DL-Dithiothreitol (DTT; 2 mM), Tyr 1 peptide (2 μM), kinase buffer and Btk (5 nM, Invitrogen) was added to the assay plates and the reaction solution was pre-incubated for 20 minutes at 25° C. Then, the ATP solution (5 μl) composed of adenosine triphosphate (ATP; 36 μM) and kinase buffer was added and the reaction solution was incubated for 1 hour at 25° C. After the incubation, the development solution B (10 μl) composed of development reagent B and development buffer was added and the reaction solution was incubated for 1 hour at 25° C. The stop solution (10 μl) was added to each well to arrest the enzyme reaction. The fluorescence emission of each well was measured on a fluorescence plate reader at a wavelength of 445 nm and 520 nm. The phospholyration ratio was determined by the emission rate of the fluorescence at 445 nm to 520 nm according to manufacturer's instruction.
(§3) The inhibition rate (%) of the compounds of the present invention was calculated with the following formula: Inhibition rate(%)=1−{(AX−AB)/(AC−AB)}×100 AX: phospholyration ratio at addition of the compound of the present invention AB: phospholyration ratio at blank AC: phospholyration ratio at only addition of DMSO
(§4) The value of 50% inhibition rate (IC50) for the compound of the present invention was determined from inhibition curve based on inhibition rate at each concentration of the compound of the present invention.
(§5) Research for inhibitory activity to other kinases (such as Lck, Fyn, LynA) was performed in similar procedure above described.

For a further data set, the target named is Fyn (Homo sapiens, UniProt P06241). The data set is described as follows: Z'-lyte kinase assay (FRET), inhibitory activity to other kinases: Fyn. The class given is biochemical. As to conditions: selectivity ratio, Biological Example 1 and 2. The procedure: as §1, §2, §3, §4, §5
A further data set concerns the target Lck (Homo sapiens, UniProt P06239). Put plainly: Z'-lyte kinase assay (FRET), inhibitory activity to other kinases: Lck. The following applies: selectivity ratio, Biological Example 1 and 2. The data set is classed as biochemical. The procedure:
as §1
The diluted solution (5 μl) of the compound of the present invention in dimethyl sulfoxide (DMSO; Sigma) was added to 96-well assay plates. Additionally, the peptide/kinase solution (10 μl) composed of DL-Dithiothreitol (DTT; 2 mM), Tyr 1 peptide (2 μM), kinase buffer and Btk (5 nM, Invitrogen) was added to the assay plates and the reaction solution was pre-incubated for 20 minutes at 25° C. […] The fluorescence emission of each well was measured on a fluorescence plate reader at a wavelength of 445 nm and 520 nm. The phospholyration ratio was determined by the emission rate of the fluorescence at 445 nm to 520 nm according to manufacturer's instruction.
The inhibition rate (%) of the compounds of the present invention was calculated with the following formula: Inhibition rate(%)=1−{(AX−AB)/(AC−AB)}×100 AX: phospholyration ratio at addition of the compound of the present invention AB: phospholyration ratio at blank AC: phospholyration ratio at only addition of DMSO […]

Another data set has as its system mouse splenocytes. Put plainly: B cell activation assay using mouse splenocytes (anti-IgM stimulated CD69 in CD19 positive cells, FACS). The class given is cell-based. The following applies: Splenocyte; anti-mouse IgM stimulation 6 hours; CD69 MFI in CD19 positive cells. The procedure:
Splenocytes collected from C57B1/6 or Balb/c mice were suspended in RPMI 1640 (Invitrogen), supplemented with 10% fetal bovine serum (FBS). The diluted solution (1 μl) of the compound of the present invention and the suspension of the mouse splenocytes (49 μl) were added to 96-well plate and incubated at 37° C. for 60 min. Cells were stimulated with 10 μl of anti-mouse IgM (Jackson Immunoresearch). Samples were stimulated at 37° C. for 6 hours, 5% CO2 and treated with 10 μl/well Fc block (BD Biosciences) for 15 min on ice in the dark. The diluted solution (10 μl) of antibody (1:2:2 mix of each, Allphycocyanin (APC)-labeled anti-mouse CD3e, Phycoerythrin (PE)-labeled anti-mouse CD19 and Fluorescein Isothiocyanate (FITC) labeled anti-mouse CD69) was added to 96-well collection plate. Samples were transferred to the 96-well collection plate and incubated for 30 min on ice in the dark. Samples were treated with Lyse/Fix solution (1.6 ml/well, BD biosciences) at 37° C. in collection plates and were incubated for at 37° C. for 15 min. Cells were collected by centrifugation at 2000 rpm for 10 min repeatedly, resuspended in stain buffer (BD Biosciences) and analyzed by FACS to determine mean fluorescence intensity (MFI) of CD69 in the CD19 positive cell population. […]

Data set [1] in a line: Pharmacokinetic profile in rats. As to conditions: rat, plasma, fasted male Sprague-Dawley rats. The class given is in vivo. As for the experimental part: Using fasted male Sprague-Dawley rats (250-400 gram; Hilltop Labs), the plasma concentration of the compound of the present invention after intravenous administration at a dose of 1 mg/kg and the plasma concentration after oral gavage administration at a dose of 2 mg/kg were measured. The blood samples (˜0.25 mL) was collected from a rat jugular vein under an unanesthetized condition 1, 5, 15, and 30 minutes, and 1, 2, 4, 8, 12 and 24 hours after intravenous administration, and 5, 15 and 30 minutes, and 1, 1.5, 2, 4, 8, 12 and 24 hours after oral administration. Then the blood samples placed into chilled tubes containing sodium heparin and kept on ice until centrifugation. The samples were centrifuged at a temperature of 4° C. at 13,000 rpm for 5 minutes and the supernatant was collected as plasma. The concentration of the compound in plasma was measured with LC/MS/MS (Acquity HPLC coupled with a quattromicro mass spectrometer, Waters Corp.). From the obtained plasma concentration, an area under the curve (AUC, ng·h/ml), a maximum plasma concentration.(Cmax, μg/mL) and a clearance (CL, mL/hr/kg) were calculated. In addition, Bioavailability (B.A.) of the compound of the present invention was calculated from AUC in oral administration and AUC in intravenous administration.

[2] abbreviates: oral 2 mg/kg / i.v. 1 mg/kg study, route of the value not given.

SMILES strings stand for the structures.

LynA, sequence (P07948 whole entry): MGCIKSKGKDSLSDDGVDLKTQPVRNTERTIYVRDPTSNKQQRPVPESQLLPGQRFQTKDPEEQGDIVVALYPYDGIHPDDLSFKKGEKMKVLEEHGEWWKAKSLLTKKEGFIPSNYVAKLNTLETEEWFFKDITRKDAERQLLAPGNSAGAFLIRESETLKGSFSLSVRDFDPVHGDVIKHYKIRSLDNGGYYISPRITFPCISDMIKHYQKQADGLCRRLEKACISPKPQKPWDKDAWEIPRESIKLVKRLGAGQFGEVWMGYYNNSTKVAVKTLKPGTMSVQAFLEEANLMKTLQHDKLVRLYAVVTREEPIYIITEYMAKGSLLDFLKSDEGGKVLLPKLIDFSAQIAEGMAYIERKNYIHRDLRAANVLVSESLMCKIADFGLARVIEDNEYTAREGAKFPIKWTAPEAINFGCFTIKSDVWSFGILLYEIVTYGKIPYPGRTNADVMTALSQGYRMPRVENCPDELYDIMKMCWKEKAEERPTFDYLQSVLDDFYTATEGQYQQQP
Fyn, sequence (P06241 whole entry): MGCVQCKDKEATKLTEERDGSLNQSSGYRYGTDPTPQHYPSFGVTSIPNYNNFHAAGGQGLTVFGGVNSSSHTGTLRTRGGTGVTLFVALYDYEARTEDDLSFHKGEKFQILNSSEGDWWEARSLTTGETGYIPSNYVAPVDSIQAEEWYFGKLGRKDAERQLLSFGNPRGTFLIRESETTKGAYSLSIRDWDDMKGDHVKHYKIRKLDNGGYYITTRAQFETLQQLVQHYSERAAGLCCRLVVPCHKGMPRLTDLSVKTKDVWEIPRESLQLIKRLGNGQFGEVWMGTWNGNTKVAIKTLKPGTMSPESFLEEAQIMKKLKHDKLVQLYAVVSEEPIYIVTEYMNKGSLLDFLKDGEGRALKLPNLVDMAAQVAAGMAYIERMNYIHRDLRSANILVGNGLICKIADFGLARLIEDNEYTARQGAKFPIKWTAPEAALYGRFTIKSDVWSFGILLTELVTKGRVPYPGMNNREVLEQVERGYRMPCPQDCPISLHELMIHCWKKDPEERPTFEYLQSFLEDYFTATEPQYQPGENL
T1 sequence (Q06187 whole entry): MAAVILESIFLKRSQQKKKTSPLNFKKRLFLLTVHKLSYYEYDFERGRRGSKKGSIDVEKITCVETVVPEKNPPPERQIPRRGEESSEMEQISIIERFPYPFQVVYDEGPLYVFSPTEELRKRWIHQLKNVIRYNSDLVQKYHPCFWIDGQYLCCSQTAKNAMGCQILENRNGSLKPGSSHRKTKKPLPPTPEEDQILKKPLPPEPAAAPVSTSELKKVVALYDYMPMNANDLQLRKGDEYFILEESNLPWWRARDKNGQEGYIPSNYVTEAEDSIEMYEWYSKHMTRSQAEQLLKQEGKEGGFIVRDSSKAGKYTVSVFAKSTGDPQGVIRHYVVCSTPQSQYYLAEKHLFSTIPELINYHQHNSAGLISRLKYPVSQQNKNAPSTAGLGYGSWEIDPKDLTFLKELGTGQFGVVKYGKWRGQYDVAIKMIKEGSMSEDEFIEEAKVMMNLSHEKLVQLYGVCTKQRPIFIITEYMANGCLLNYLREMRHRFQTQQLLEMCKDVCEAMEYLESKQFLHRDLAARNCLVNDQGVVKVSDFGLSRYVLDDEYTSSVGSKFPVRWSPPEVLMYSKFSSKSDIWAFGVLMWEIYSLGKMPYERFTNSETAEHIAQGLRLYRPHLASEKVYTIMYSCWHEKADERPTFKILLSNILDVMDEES
Lck, sequence (P06239 whole entry): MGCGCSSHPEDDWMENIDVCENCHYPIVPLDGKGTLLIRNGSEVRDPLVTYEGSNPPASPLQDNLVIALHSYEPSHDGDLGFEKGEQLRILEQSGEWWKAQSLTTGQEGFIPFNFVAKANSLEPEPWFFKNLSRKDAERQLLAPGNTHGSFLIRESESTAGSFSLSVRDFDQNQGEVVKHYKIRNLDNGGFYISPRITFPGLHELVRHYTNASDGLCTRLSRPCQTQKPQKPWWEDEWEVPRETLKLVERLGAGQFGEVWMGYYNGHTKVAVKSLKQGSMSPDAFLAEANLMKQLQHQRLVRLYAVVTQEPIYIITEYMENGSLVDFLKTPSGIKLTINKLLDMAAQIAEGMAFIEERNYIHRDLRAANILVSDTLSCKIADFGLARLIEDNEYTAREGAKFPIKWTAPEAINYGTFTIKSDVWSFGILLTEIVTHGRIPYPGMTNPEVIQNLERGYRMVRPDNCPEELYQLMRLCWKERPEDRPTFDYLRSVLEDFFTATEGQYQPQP

In general, IC50 refers to the midpoint of a concentration-inhibition curve. As for `COc1cc(-c2c(C3CCNCC3)c(C3CCCC3)n3ncnc(N)c23)ccc1Oc1ccc(Cl)c(Cl)c1` [Example 25(1), 7-cyclopentyl-5-(4-(3,4-dichlorophenoxy)-3-methoxyphenyl)-6-(piperidin-4-yl)pyrrolo[2,1-f][1,2,4]triazin-4-amine], the IC50 at Btk is 62 nM.
Consider `CCN(CC)CC(=O)N1CCC(c2c(CCCN3CCCC3)c(-c3ccc(Oc4ccc(Cl)c(Cl)c4)c(OC)c3)c3c(N)ncnn23)CC1` [Example 21, 1-(4-(4-amino-5-(4-(3,4-dichlorophenoxy)-3-methoxyphenyl)-6-(3-(pyrrolidin-1-yl)propyl)pyrrolo[2,1-f][1,2,4]triazin-7-yl)piperidin-1-yl)-2-(diethylamino)ethanone], for which the IC50 on Btk stood at 16 nM.
Same read-out and setting: the same measure for `COc1cccc(-c2c(CCCN(C)C)c(-c3ccc(Oc4ccccc4)cc3)c3c(N)ncnn23)c1` [Example 16(1), 6-(3-(dimethylamino)propyl)-7-(3-methoxyphenyl)-5-(4-phenoxyphenyl)pyrrolo[2,1-f][1,2,4]triazin-4-amine]: 5.8 nM.
`C=CC(=O)N1CCCC(c2c(Cl)c(-c3ccc(Oc4ccc(Cl)c(Cl)c4)c(OC)c3)c3c(N)ncnn23)C1` (stereo not drawn) [Example 32(1), 1-(3-(4-amino-6-chloro-5-(4-(3,4-dichlorophenoxy)-3-methoxyphenyl)pyrrolo[2,1-f][1,2,4]triazin-7-yl)piperidin-1-yl)prop-2-en-1-one]: the IC50 at Btk stood at 2 nM. For the same compound, the “LynA[IC50]/Btk[IC50]” value at LynA is 10000. Further, the “Fyn[IC50]/Btk[IC50]” value at Fyn was more than 10000.
Turning to `COc1cccc(-c2c(CCCN3CCCC3)c(-c3ccc(Oc4ccc(Cl)c(Cl)c4)c(OC)c3)c3c(N)ncnn23)c1` [Example 16(3), 5-(4-(3,4-dichlorophenoxy)-3-methoxyphenyl)-7-(3-methoxyphenyl)-6-(3-(pyrrolidin-1-yl)propyl)pyrrolo[2,1-f][1,2,4]triazin-4-amine], the IC50 on Btk came to 12 nM. In addition, the “Lck[IC50]/Btk[IC50]” value at Lck was 40. The “LynA[IC50]/Btk[IC50]” value on LynA is 78. The “Fyn[IC50]/Btk[IC50]” value on Fyn is 917.
The term bioavailability denotes the share of a dose that reaches the circulation, judged against a reference dose that is usually intravenous. Usually AUC stands for the area under the concentration-time curve, a measure of exposure. A higher AUC goes with high exposure. In general, Cmax refers to the maximum level reached in the sampled fluid or tissue. Take `C=CC(=O)N1CCCC(c2c(Cl)c(-c3ccc(Oc4cccc(Cl)c4)c(OC)c3)c3c(N)ncnn23)C1` (stereo not drawn) [Example 32, 1-(3-(4-amino-6-chloro-5-(4-(3-chlorophenoxy)-3-methoxyphenyl)pyrrolo[2,1-f][1,2,4]triazin-7-yl)piperidin-1-yl)prop-2-en-1-one]: the IC50 at Btk is 2 nM. The “Lck[IC50]/Btk[IC50]” value on Lck came out at 161. Also, at LynA, the “LynA[IC50]/Btk[IC50]” value is given as 1389. Besides, the “Fyn[IC50]/Btk[IC50]” value at Fyn came to 7222. Further, inhibition in the data set on mouse splenocytes was half-maximal at 130 nM (IC50). This compound had a clearance in data set [1] (intravenous, oral 2 mg/kg / i.v. 1 mg/kg study) of 17.8 mL/day/kg. Besides, the bioavailability in data set [1] (from AUC oral 2 mg/kg and AUC i.v. 1 mg/kg, read-out: B.A. (Bioavailability)) turned out to be 24%. In data set [1] (setting [2]), this compound yielded an AUC of 652 ng·h/mL and a Cmax of 227 ng/mL.
`CCN(CC)CC(=O)N1CCC(c2c(CCCN3CCCC3)c(-c3ccc(Oc4cccc(Cl)c4)c(OC)c3)c3c(N)ncnn23)CC1` [Example 21(1), 1-(4-(4-amino-5-(4-(3-chlorophenoxy)-3-methoxyphenyl)-6-(3-(pyrrolidin-1-yl)propyl)pyrrolo[2,1-f][1,2,4]triazin-7-yl)piperidin-1-yl)-2-(diethylamino)ethanone]: the IC50 at Btk was 22 nM.
Same read-out and setting: the same measure for `COc1cccc(-c2c(CCCN3CCCC3)c(-c3ccc(Oc4ccccc4)cc3)c3c(N)ncnn23)c1` [Example 16(2), 7-(3-methoxyphenyl)-5-(4-phenoxyphenyl)-6-(3-(pyrrolidin-1-yl)propyl)pyrrolo[2,1-f][1,2,4]triazin-4-amine]: 65 nM.
